Columns and labels:
[1] = test system: RNR; assay: dNTP measurement (HIV-1 RT-based dNTP assay) in PEO4 cells; type: cell-based; details: 50 μM DB4 or 1 μM triapine, 24 hr
Description: (§1) FIG. 2, comprising FIG. 2A through FIG. 2F, depicts representative results of follow-up assays of in silico hit compounds in PEO1 and PEO4 cells. FIG. 2A depicts representative results of cytotoxicity assays on selected 25 in silico hit compounds in PEO1 and PEO4 cells. Cells were plated for 24 hr and then treated with 50 μM compounds for 72 hr. For a positive control, cells were treated with 1 μM triapine for 72 hr. The percentage of cell survival was determined by the MTS cytotoxicity assay. […] Cells were treated with 50 μM compounds or 1 μM triapine for 24 hr. During the last hour, cells were pulse-labeled with EdU, stained with the Click-iT EdU Alexa Fluor 488 Assay Kit, counterstained with 7-AAD, and subsequently analyzed by flow cytometry. EdU-positive cells were gated to determine the percentage of the S phase cell population. […] During the last hour, cells were pulse-labeled with EdU, stained with the Click-iT EdU Alexa Fluor 488 Assay Kit, counterstained with 7-AAD, and subsequently analyzed by flow cytometry. […] The percentages of DNA synthesis in cells treated with each of 10 compounds and triapine relative to the DMSO-treated control is calculated and shown. […] Cells were extracted with 65% methanol for determination of each of dNTPs expressed as pmole/10^6 cells. […] The percentage of cell survival was determined by the MTS cytotoxicity assay. […]

[2] = test system: PEO1 cells; assay: Reversal of RNR inhibition by supplementing deoxyribonucleosides (MTS); type: cell-based; details: addition of dA plus dG, or all dNs, 72 hr
Description: as §1

Row | SMILES | levels of dNTPs [1] | reversal of inhibitory effects on cell survival by dNs [2]
1 | C=CCn1c(SCc2cccc(Cl)c2)nnc1C1CCN(Cc2nc3ccccc3s2)CC1 [DB4, 2-[(4-{4-allyl-5-[(3-chlorobenzyl)thio]-4H-1,2,4-triazol-3-yl}-1-piperidinyl)methyl]-1,3-benzothiazole] | significant decreases in the levels of dATP, dGTP, and dTTP | partially reversed
2 | NC(=S)NN=Cc1ncccc1N [triapine, 3-aminopyridine-2-carboxaldehyde-thiosemicarbazone, reference compound] | significant and pronounced decreases in the levels of dATP and dGTP while causing a marked increase in dCTP and somewhat elevated dTTP | partially reversed

From patent publication US20240239786A1, “COMPOSITIONS AND METHODS FOR THE TREATMENT AND PREVENTION OF CANCER” (Yale University, priority 2021, published 2024)
